Results on one molecule are retold here after ChEMBL document CHEMBL1201861, “Genomics of Drug Sensitity in Cancer screening data, Wellcome Trust Sanger Institute”.

pIC50: −log10 of the molar value.

The subject of the first test is NOMO-1. The test is described as follows: cells. It counts as functional, cell-based, Homo sapiens. The note with it: Homo sapiens, NOMO-1.
Description: SANGER: Inhibition of human NOMO-1 cell growth in a cell viability assay.
Take `CN(C)CCOc1ccc(-c2nc(-c3ccncc3)c(-c3ccc4c(c3)CC/C4=N\O)[nH]2)cc1` [SB590885]: the pIC50 was below 5.30.

Another test deals with LB1047-RCC. Kind of test: cells. The class given is functional, cell-based, Homo sapiens. The note with it: Homo sapiens, LB1047-RCC.
Description: SANGER: Inhibition of human LB1047-RCC cell growth in a cell viability assay.
Molecule `CN(C)CCOc1ccc(-c2nc(-c3ccncc3)c(-c3ccc4c(c3)CC/C4=N\O)[nH]2)cc1` [SB590885] had a pIC50 below 5.30.

The test system of a further test is RPMI-8226. The test is described as follows: cells. It counts as functional, cell-based, Homo sapiens. The note with it: Homo sapiens, RPMI-8226.
Description: SANGER: Inhibition of human RPMI-8226 cell growth in a cell viability assay.
`CN(C)CCOc1ccc(-c2nc(-c3ccncc3)c(-c3ccc4c(c3)CC/C4=N\O)[nH]2)cc1` [SB590885] gave a pIC50 below 5.30.

The test system of a further test is RH-1. The test is described as follows: cells. The class given is functional, cell-based, Homo sapiens. The note with it: Homo sapiens, RH-1.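 Further: growth inhibition of human RH-1 cells, read out with a cell viability assay.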
Description: SANGER: Inhibition of human RH-1 cell growth in a cell viability assay.
The molecule `CN(C)CCOc1ccc(-c2nc(-c3ccncc3)c(-c3ccc4c(c3)CC/C4=N\O)[nH]2)cc1` [SB590885] had a pIC50 below 5.30.

In a further test the test system is P30-OHK. The test is described as follows: cells. The note with it: Homo sapiens, P30-OHK. The class given is functional, cell-based, Homo sapiens.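 Further: growth inhibition of the P30-OHK cell line, read out with a cell viability assay.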
Description: SANGER: Inhibition of human P30-OHK cell growth in a cell viability assay.
In turn, `CN(C)CCOc1ccc(-c2nc(-c3ccncc3)c(-c3ccc4c(c3)CC/C4=N\O)[nH]2)cc1` [SB590885] gave a pIC50 below 5.30.

A further test has as its system LU-139. Kind of test: cells. It counts as functional, cell-based, Homo sapiens. The note with it: Homo sapiens, LU-139.
Description: SANGER: Inhibition of human LU-139 cell growth in a cell viability assay.
Consider `CN(C)CCOc1ccc(-c2nc(-c3ccncc3)c(-c3ccc4c(c3)CC/C4=N\O)[nH]2)cc1` [SB590885], for which the pIC50 is below 5.30.

The next test has as its system COLO-668. The test is described as follows: cells. The class given is functional, cell-based, Homo sapiens. The note with it: Homo sapiens, COLO-668.
Description: SANGER: Inhibition of human COLO-668 cell growth in a cell viability assay.
For `CN(C)CCOc1ccc(-c2nc(-c3ccncc3)c(-c3ccc4c(c3)CC/C4=N\O)[nH]2)cc1` [SB590885], the pIC50 was below 5.30.

The test system of the next test is ATN-1. Kind of test: cells. It counts as functional, cell-based, Homo sapiens. The note with it: Homo sapiens, ATN-1.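 Further: growth inhibition of human ATN-1 cells, read out with a cell viability assay.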
Description: SANGER: Inhibition of human ATN-1 cell growth in a cell viability assay.
On to `CN(C)CCOc1ccc(-c2nc(-c3ccncc3)c(-c3ccc4c(c3)CC/C4=N\O)[nH]2)cc1` [SB590885], for which the pIC50 was below 5.30.

The next test concerns HCC1187. The test is described as follows: cells. The class given is functional, cell-based, Homo sapiens. The note with it: Homo sapiens, HCC1187.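 Further: growth inhibition of HCC1187 cells, read out with a cell viability assay.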
Description: SANGER: Inhibition of human HCC1187 cell growth in a cell viability assay.
With `CN(C)CCOc1ccc(-c2nc(-c3ccncc3)c(-c3ccc4c(c3)CC/C4=N\O)[nH]2)cc1` [SB590885], the pIC50 was below 5.30.

In another test the test system is NCI-H1355. Kind of test: cells. It counts as functional, cell-based, Homo sapiens. The note with it: Homo sapiens, NCI-H1355.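 Further: growth inhibition of human NCI-H1355 cells, read out by a cell viability assay.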
Description: SANGER: Inhibition of human NCI-H1355 cell growth in a cell viability assay.
`CN(C)CCOc1ccc(-c2nc(-c3ccncc3)c(-c3ccc4c(c3)CC/C4=N\O)[nH]2)cc1` [SB590885] gave a pIC50 below 5.30.

For a further test, the system named is LNCaP-Clone-FGC. The test is described as follows: cells. The class given is functional, cell-based, Homo sapiens. The note with it: Homo sapiens, LNCaP-Clone-FGC.
Description: SANGER: Inhibition of human LNCaP-Clone-FGC cell growth in a cell viability assay.
As for `CN(C)CCOc1ccc(-c2nc(-c3ccncc3)c(-c3ccc4c(c3)CC/C4=N\O)[nH]2)cc1` [SB590885], the pIC50 was below 5.30.

Another test concerns SF-268. The test is described as follows: cells. The note with it: Homo sapiens, SF-268. The class given is functional, cell-based, Homo sapiens.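 Further: growth inhibition of SF-268 cells determined with a cell viability assay.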
Description: SANGER: Inhibition of human SF268 cell growth in a cell viability assay.
In turn, `CN(C)CCOc1ccc(-c2nc(-c3ccncc3)c(-c3ccc4c(c3)CC/C4=N\O)[nH]2)cc1` [SB590885] gave a pIC50 below 5.30.

The test system of a further test is HEL. Kind of test: cells. It counts as functional, cell-based, Homo sapiens. The note with it: Homo sapiens, HEL.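 Further: growth inhibition of HEL cells, read out with a cell viability assay.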
Description: SANGER: Inhibition of human HEL cell growth in a cell viability assay.
In turn, `CN(C)CCOc1ccc(-c2nc(-c3ccncc3)c(-c3ccc4c(c3)CC/C4=N\O)[nH]2)cc1` [SB590885] had a pIC50 below 5.30.

A further test deals with CAS-1. The test is described as follows: cells. The class given is functional, cell-based, Homo sapiens. The note with it: Homo sapiens, CAS-1.
Description: SANGER: Inhibition of human CAS-1 cell growth in a cell viability assay.
Molecule `CN(C)CCOc1ccc(-c2nc(-c3ccncc3)c(-c3ccc4c(c3)CC/C4=N\O)[nH]2)cc1` [SB590885] gave a pIC50 below 5.30.

The test system of a further test is GCIY. The test is described as follows: cells. It counts as functional, cell-based, Homo sapiens. The note with it: Homo sapiens, GCIY.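 Further: growth inhibition of the human GCIY cell line, read out by a cell viability assay.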
Description: SANGER: Inhibition of human GCIY cell growth in a cell viability assay.
Molecule `CN(C)CCOc1ccc(-c2nc(-c3ccncc3)c(-c3ccc4c(c3)CC/C4=N\O)[nH]2)cc1` [SB590885] showed a negative-log IC50 (pIC50) below 5.30.

Another test relates to ES7. The test is described as follows: cells. It counts as functional, cell-based, Homo sapiens. The note with it: Homo sapiens, ES7.
Description: SANGER: Inhibition of human ES7 cell growth in a cell viability assay.
`CN(C)CCOc1ccc(-c2nc(-c3ccncc3)c(-c3ccc4c(c3)CC/C4=N\O)[nH]2)cc1` [SB590885] had a pIC50 below 5.30.

In the next test the test system is TE-8. The test is described as follows: cells. It counts as functional, cell-based, Homo sapiens. The note with it: Homo sapiens, TE-8.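 Further: growth inhibition of TE-8 cells, measured with a cell viability readout.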
Description: SANGER: Inhibition of human TE-8 cell growth in a cell viability assay.
In the case of `CN(C)CCOc1ccc(-c2nc(-c3ccncc3)c(-c3ccc4c(c3)CC/C4=N\O)[nH]2)cc1` [SB590885], the pIC50 is below 5.30.

The test system of a further test is KNS-42. The test is described as follows: cells. It counts as functional, cell-based. The note with it: Homo sapiens.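 Further: growth inhibition of KNS-42 cells, read out with a cell viability assay.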
Description: SANGER: Inhibition of human KNS-42 cell growth in a cell viability assay.
With `CN(C)CCOc1ccc(-c2nc(-c3ccncc3)c(-c3ccc4c(c3)CC/C4=N\O)[nH]2)cc1` [SB590885], the pIC50 was below 5.30.

A further test deals with CTV-1. The test is described as follows: cells. The class given is functional, cell-based, Homo sapiens. The note with it: Homo sapiens, CTV-1.
Description: SANGER: Inhibition of human CTV-1 cell growth in a cell viability assay.
`CN(C)CCOc1ccc(-c2nc(-c3ccncc3)c(-c3ccc4c(c3)CC/C4=N\O)[nH]2)cc1` [SB590885] had a pIC50 below 5.30.

A further test has as its system HAL-01. Kind of test: cells. The class given is functional, cell-based, Homo sapiens. The note with it: Homo sapiens, HAL-01.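 Further: growth inhibition of human HAL-01 cells, read out with a cell viability assay.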
Description: SANGER: Inhibition of human HAL-01 cell growth in a cell viability assay.
As for `CN(C)CCOc1ccc(-c2nc(-c3ccncc3)c(-c3ccc4c(c3)CC/C4=N\O)[nH]2)cc1` [SB590885], the pIC50 is 5.53.

The subject of a further test is CW-2. The test is described as follows: cells. The class given is functional, cell-based, Homo sapiens. The note with it: Homo sapiens, CW-2.
Description: SANGER: Inhibition of human CW-2 cell growth in a cell viability assay.
In turn, `CN(C)CCOc1ccc(-c2nc(-c3ccncc3)c(-c3ccc4c(c3)CC/C4=N\O)[nH]2)cc1` [SB590885] showed a negative logarithm of the IC50 (pIC50) below 5.30.

In a further test the test system is EW-18. The test is described as follows: cells. The note with it: Homo sapiens, EW-18; read-out: IC50. It counts as functional, cell-based, Homo sapiens.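 Further: growth inhibition of EW-18 cells, read out by a cell viability assay.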
Description: SANGER: Inhibition of human EW-18 cell growth in a cell viability assay.
With `CN(C)CCOc1ccc(-c2nc(-c3ccncc3)c(-c3ccc4c(c3)CC/C4=N\O)[nH]2)cc1` [SB590885], the pIC50 is below 5.30.

The next test deals with HCC2218. Kind of test: cells. It counts as functional, cell-based, Homo sapiens. The note with it: Homo sapiens, HCC2218.
Description: SANGER: Inhibition of human HCC2218 cell growth in a cell viability assay.
With `CN(C)CCOc1ccc(-c2nc(-c3ccncc3)c(-c3ccc4c(c3)CC/C4=N\O)[nH]2)cc1` [SB590885], the pIC50 was 5.98.

A further test has as its system NEC8. Kind of test: cells. The class given is functional, cell-based, Homo sapiens. The note with it: Homo sapiens, NEC8.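 Further: growth inhibition of human NEC8 cells, read out by a cell viability assay.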
Description: SANGER: Inhibition of human NEC8 cell growth in a cell viability assay.
On to `CN(C)CCOc1ccc(-c2nc(-c3ccncc3)c(-c3ccc4c(c3)CC/C4=N\O)[nH]2)cc1` [SB590885], for which the pIC50 is below 5.30.
